Experimental data from ChEMBL document CHEMBL1201862, “PubChem BioAssay data set” (2004).
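In this assay, cells in 96-well plates receive the compound at five concentrations for 48 hours. Endpoints are linearly interpolated between the surrounding concentrations. Here, GI50 denotes the concentration required for 50% inhibition of growth.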 Active and inactive are the calls of the source. Cut-off read from the data, not from the text of the source: active = GI50 up to about 1.1 µM and inactive = higher.

Assays:
Assay in all cases: NCI tumour cell line growth inhibition, 48 h
A498 = test system: A498
HL-60 = test system: HL-60
HCT-116 = test system: HCT-116
A549 = test system: A549
NCI-H522 = test system: NCI-H522
HT-29 = test system: HT-29
OVCAR-5 = test system: OVCAR-5
MCF7 = test system: MCF7
DU-145 = test system: DU-145
OVCAR-8 = test system: OVCAR-8
EKVX = test system: EKVX
HCC 2998 = test system: HCC 2998
LOX IMVI = test system: LOX IMVI
Hs-578T = test system: Hs-578T
SF-295 = test system: SF-295
PC-3 = test system: PC-3
KM12 = test system: KM12
ACHN = test system: ACHN
SNB-75 = test system: SNB-75
SNB-19 = test system: SNB-19
COLO 205 = test system: COLO 205
SK-MEL-28 = test system: SK-MEL-28
SN12C = test system: SN12C
UACC-62 = test system: UACC-62
CCRF-CEM = test system: CCRF-CEM
MDA-MB-231 = test system: MDA-MB-231
UACC-257 = test system: UACC-257
OVCAR-4 = test system: OVCAR-4
M14 = test system: M14
SF-268 = test system: SF-268
NCI/ADR-RES = test system: NCI/ADR-RES
SW-620 = test system: SW-620
NCI-H23 = test system: NCI-H23
NCI-H460 = test system: NCI-H460
BT-549 = test system: BT-549
786-0 = test system: 786-0
SR = test system: SR
MDA-MB-435 = test system: MDA-MB-435
NCI-H226 = test system: NCI-H226
Malme-3M = test system: Malme-3M
T47D = test system: T47D
SK-MEL-2 = test system: SK-MEL-2
OVCAR-3 = test system: OVCAR-3
RPMI-8226 = test system: RPMI-8226
SK-OV-3 = test system: SK-OV-3
MDA-N = test system: MDA-N
HOP-92 = test system: HOP-92
TK-10 = test system: TK-10
HOP-62 = test system: HOP-62
SF-539 = test system: SF-539
HCT-15 = test system: HCT-15
IGROV-1 = test system: IGROV-1
U-251 = test system: U-251
SK-MEL-5 = test system: SK-MEL-5
CAKI-1 = test system: CAKI-1
RXF 393 = test system: RXF 393
UO-31 = test system: UO-31
K562 = test system: K562
MOLT-4 = test system: MOLT-4

## Cc1ccc(Nc2nc(=O)[nH]c(=O)[nH]2)cc1N
A498
  GI50: > 100 µM (inactive)
HL-60
  GI50: > 100 µM (inactive)
HCT-116
  GI50: > 100 µM (inactive)
A549
  GI50: > 100 µM (inactive)
NCI-H522
  GI50: > 100 µM (inactive)
HT-29
  GI50: > 100 µM (inactive)
OVCAR-5
  GI50: > 100 µM (inactive)
MCF7
  GI50: > 100 µM (inactive)
DU-145
  GI50: > 100 µM (inactive)
OVCAR-8
  GI50: > 100 µM (inactive)
EKVX
  GI50: > 100 µM (inactive)
HCC 2998
  GI50: > 100 µM (inactive)
LOX IMVI
  GI50: > 100 µM (inactive)
Hs-578T
  GI50: > 100 µM (inactive)
SF-295
  GI50: > 100 µM (inactive)
PC-3
  GI50: > 100 µM (inactive)
KM12
  GI50: > 100 µM (inactive)
ACHN
  GI50: > 100 µM (inactive)
SNB-75
  GI50: > 100 µM (inactive)
SNB-19
  GI50: > 100 µM (inactive)
COLO 205
  GI50: > 100 µM (inactive)
SK-MEL-28
  GI50: 32.7 µM (inactive)
SN12C
  GI50: > 100 µM (inactive)
UACC-62
  GI50: > 100 µM (inactive)
CCRF-CEM
  GI50: > 100 µM (inactive)
MDA-MB-231
  GI50: > 100 µM (inactive)
UACC-257
  GI50: > 100 µM (inactive)
OVCAR-4
  GI50: > 100 µM (inactive)
M14
  GI50: > 100 µM (inactive)
SF-268
  GI50: > 100 µM (inactive)
NCI/ADR-RES
  GI50: > 100 µM (inactive)
SW-620
  GI50: 30.8 µM (inactive)
NCI-H23
  GI50: > 100 µM (inactive)
NCI-H460
  GI50: > 100 µM (inactive)
BT-549
  GI50: > 100 µM (inactive)
786-0
  GI50: > 100 µM (inactive)
SR
  GI50: > 100 µM (inactive)
MDA-MB-435
  GI50: 26.5 µM (inactive)
NCI-H226
  GI50: > 100 µM (inactive)
Malme-3M
  GI50: > 100 µM (inactive)
T47D
  GI50: > 100 µM (inactive)
SK-MEL-2
  GI50: > 100 µM (inactive)
OVCAR-3
  GI50: > 100 µM (inactive)
RPMI-8226
  GI50: > 100 µM (inactive)
SK-OV-3
  GI50: > 100 µM (inactive)
MDA-N
  GI50: > 100 µM (inactive)
HOP-92
  GI50: > 100 µM (inactive)
TK-10
  GI50: > 100 µM (inactive)
HOP-62
  GI50: > 100 µM (inactive)
SF-539
  GI50: > 100 µM (inactive)
HCT-15
  GI50: > 100 µM
IGROV-1
  GI50: > 100 µM (inactive)
U-251
  GI50: 27.5 µM (inactive)
SK-MEL-5
  GI50: > 100 µM (inactive)
CAKI-1
  GI50: > 100 µM (inactive)

## C=C(C)C1CCC2(CO)C(O)CC3(C)C(CCC4C5(C)CCC(O)C(C)(C)C5CCC43C)C12 (stereo not drawn)
A498
  GI50: 10.9 µM (inactive)
HL-60
  GI50: 25.3 µM (inactive)
HCT-116
  GI50: 22.4 µM (inactive)
A549
  GI50: 10.6 µM (inactive)
NCI-H522
  GI50: 6.58 µM (inactive)
HT-29
  GI50: 6.53 µM (inactive)
OVCAR-5
  GI50: > 100 µM (inactive)
MCF7
  GI50: 11.6 µM (inactive)
DU-145
  GI50: 35.6 µM (inactive)
OVCAR-8
  GI50: 3.85 µM (inactive)
EKVX
  GI50: 13.9 µM (inactive)
LOX IMVI
  GI50: 9.98 µM (inactive)
Hs-578T
  GI50: 7.76 µM (inactive)
SF-295
  GI50: 2.84 µM (inactive)
PC-3
  GI50: 6.01 µM (inactive)
KM12
  GI50: 6.97 µM (inactive)
ACHN
  GI50: 3.57 µM (inactive)
SNB-75
  GI50: 3.7 µM (inactive)
SNB-19
  GI50: 5.36 µM (inactive)
SK-MEL-28
  GI50: 10.4 µM (inactive)
SN12C
  GI50: 16.5 µM (inactive)
CCRF-CEM
  GI50: 50 µM (inactive)
MDA-MB-231
  GI50: 12.7 µM (inactive)
UACC-257
  GI50: 10.5 µM (inactive)
M14
  GI50: 18.6 µM (inactive)
SF-268
  GI50: 8.36 µM (inactive)
NCI/ADR-RES
  GI50: 15.3 µM (inactive)
SW-620
  GI50: 21.8 µM (inactive)
NCI-H23
  GI50: > 10 µM (inactive)
NCI-H460
  GI50: 11.8 µM (inactive)
BT-549
  GI50: 11.6 µM (inactive)
RXF 393
  GI50: 2.32 µM (inactive)
786-0
  GI50: 8.09 µM (inactive)
SR
  GI50: 42.8 µM (inactive)
MDA-MB-435
  GI50: 7.74 µM (inactive)
UO-31
  GI50: 3.82 µM (inactive)
NCI-H226
  GI50: 34.6 µM (inactive)
Malme-3M
  GI50: 13.6 µM (inactive)
T47D
  GI50: 1.06 µM (active)
SK-MEL-2
  GI50: 10.3 µM (inactive)
OVCAR-3
  GI50: 11.4 µM (inactive)
MDA-N
  GI50: 12.1 µM (inactive)
HOP-92
  GI50: 11.4 µM (inactive)
TK-10
  GI50: 16.1 µM (inactive)
K562
  GI50: 9.77 µM (inactive)
MOLT-4
  GI50: 27.4 µM (inactive)
HOP-62
  GI50: 4.16 µM (inactive)
SF-539
  GI50: 12.7 µM (inactive)
HCT-15
  GI50: 11.9 µM
IGROV-1
  GI50: 11.7 µM (inactive)
U-251
  GI50: 2.81 µM (inactive)
SK-MEL-5
  GI50: 5.14 µM (inactive)
CAKI-1
  GI50: 3.73 µM (inactive)
